The text below walks through data of ChEMBL document CHEMBL1150737, “Antitumor agents, 90. Bruceantinoside C, a new cytotoxic quassinoid glycoside from Brucea antidysenterica” (1987).

The subject of one test is P388. Kind of test: Cytotoxicity against mouse P388 cells. It counts as functional. The note with it: read-out: ED50 (the source's name).
Another test concerns L1210. Kind of test: Cytotoxicity against mouse L1210 cells. It counts as functional. The note with it: read-out: ED50 (the source's name).

Values after ≈ are worked out from the molar mass of the structure shown.

Take `O=c1[nH]cc(F)c(=O)[nH]1` [FLUOROURACIL]: the figures for the EC50 in the test with P388 and in the test on L1210 were 3.72 µg/mL (≈ 28.6 µM) and 1.94 µg/mL (≈ 14.9 µM), respectively.
The corresponding values for `COC(=O)[C@]12OC[C@]34[C@H]([C@@H](O)[C@@H]1O)[C@@]1(C)C(=O)C(O[C@@H]5O[C@H](CO)[C@@H](O)[C@H](O)[C@H]5O)=C[C@@H](C)[C@@H]1C[C@H]3OC(=O)[C@H](OC(=O)/C=C(\C)C(C)(C)OC(C)=O)[C@@H]24` [Bruceantinoside C] are 2.12 µg/mL (≈ 2.76 µM) and 3.5 µg/mL (≈ 4.55 µM).
Taken in the same sequence, the figures for `COC(=O)[C@]12OC[C@]34[C@H]([C@@H](O)[C@@H]1O)[C@@]1(C)C=C(O[C@@H]5O[C@H](CO)[C@@H](O)[C@H](O)[C@H]5O)C(=O)[C@@H](C)[C@@H]1C[C@H]3OC(=O)[C@H](OC(=O)/C=C(\C)C(C)(C)OC(C)=O)[C@@H]24` [Yadanzioside G] were 1.25 µg/mL (≈ 1.63 µM) and 2.58 µg/mL (≈ 3.36 µM).
The corresponding values for `COC(=O)[C@]12OC[C@]34[C@H]([C@@H](O)[C@@H]1O)[C@@]1(C)C(=O)C(O[C@@H]5O[C@H](CO)[C@@H](O)[C@H](O)[C@H]5O)=C[C@@H](C)[C@@H]1C[C@H]3OC(=O)[C@H](OC(=O)/C=C(\C)C(C)C)[C@@H]24` [Yadanzioside N] are 2.24 µg/mL (≈ 3.15 µM) and 4.56 µg/mL (≈ 6.42 µM).
